These results are taken from PMC8911752, “The Synthesis and Initial Evaluation of MerTK Targeted PET Agents” (Molecules, 2022).

pIC50: −log10 of the molar value.

In one series the target is T1, Tyro3 (Homo sapiens, UniProt Q06418).
T1 sequence (Q06418 41-890): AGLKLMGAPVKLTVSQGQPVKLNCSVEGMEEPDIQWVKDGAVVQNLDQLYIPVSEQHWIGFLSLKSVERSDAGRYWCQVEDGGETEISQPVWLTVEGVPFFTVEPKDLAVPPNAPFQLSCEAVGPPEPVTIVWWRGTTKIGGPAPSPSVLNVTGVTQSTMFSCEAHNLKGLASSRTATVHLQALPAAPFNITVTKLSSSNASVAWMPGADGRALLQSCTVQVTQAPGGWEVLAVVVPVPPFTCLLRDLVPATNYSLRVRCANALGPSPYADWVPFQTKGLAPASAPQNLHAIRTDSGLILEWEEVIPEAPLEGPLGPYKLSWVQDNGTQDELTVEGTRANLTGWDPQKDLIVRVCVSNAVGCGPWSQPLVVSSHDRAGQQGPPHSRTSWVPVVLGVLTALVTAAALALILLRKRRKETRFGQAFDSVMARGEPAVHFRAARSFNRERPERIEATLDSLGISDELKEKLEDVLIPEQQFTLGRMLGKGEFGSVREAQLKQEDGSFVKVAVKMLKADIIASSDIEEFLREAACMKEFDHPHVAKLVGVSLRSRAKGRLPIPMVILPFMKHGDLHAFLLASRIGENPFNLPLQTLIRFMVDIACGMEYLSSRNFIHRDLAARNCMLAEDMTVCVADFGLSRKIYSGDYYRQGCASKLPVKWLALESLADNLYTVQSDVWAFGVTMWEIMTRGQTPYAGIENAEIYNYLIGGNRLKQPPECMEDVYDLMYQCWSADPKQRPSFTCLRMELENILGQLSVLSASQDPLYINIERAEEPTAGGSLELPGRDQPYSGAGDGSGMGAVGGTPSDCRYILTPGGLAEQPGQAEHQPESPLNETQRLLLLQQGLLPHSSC
Put plainly: Microcapillary electrophoresis (MCE) kinase assay, Tyro3. To be noted: ATP at Km, mean of two or more independent assays. The class given is biochemical. As for the experimental part: The inhibitory activities of standards towards MerTK, Axl, Tyro3 and Flt3 were determined in our in-house microcapillary electrophoresis (MCE) assays.
Microcapillary Electrophoresis (MCE) Assays were performed with literature method. […] All reactions were terminated by addition of 20 µL of 70 mM EDTA. After an 180 min incubation, phosphorylated and unphosphorylated substrate peptides (Table 2) were separated in buffer supplemented with 1 x CR-8 on a LabChip EZ Reader equipped with a 12-sipper chip. Data were analyzed using EZ Reader software.

Series [1] has as its system B16F10 tumor-bearing mice. The series can be described thus: PET imaging in B16F10 tumor-bearing mice. The format is in vivo. Conditions: 68Ga-labeled, initial pilot study in mice.
Series [2] relates to B16F10 tumor-bearing mice. The series can be described thus: PET imaging in B16F10 tumor-bearing mice. The class given is in vivo. To be noted: initial PET study, 18F-labeled agents. As for the experimental part: Evaluation of the PET agent [^18F]-MerTK-6 was performed on B16F10 tumor-bearing mice. At 30 min post-injection (p.i), the uptake in tumor, liver, kidney, and muscle was 4.65 ± 1.25, 14.79 ± 0.99, 10.42 ± 1.01, and 2.51 ± 0.48%ID/g, respectively. The uptake at 2 h p.i. was 4.79 ± 0.24, 9.72 ± 1.56, 5.34 ± 1.25, and 1.55 ± 0.23%ID/g, respectively. Overall, the tumor uptake was maintained at ~5%ID/g and the tumor to muscle contrast increased to 3.09 at 2 h p.i, compared with 1.86 at 0.5 h p.i.
All animal studies were reviewed and approved by The University of North Carolina at Chapel Hill Institutional Animal Care and Use Committee. The B16F10 tumor cell was obtained from the LCCC tissue culture facility (the University of North Carolina at Chapel Hill, Chapel Hill, NC, USA). The B16F10 tumor-bearing […] mouse model was prepared as described previously. Briefly, B16/F10 cells were subcutaneously injected on the right flank of C57BL/6 female mice (Jackson Laboratory). The tumor volume was measured daily. When the tumor size reached 100 mm^3, the mice were used for PET imaging studies.
B16F10 tumor-bearing mice (n = 3/group) were intravenously injected via the tail vein with tracers. At 30 min and 120 min post-injection, a 10-min static emission scan was acquired with a SuperArgus small-animal PET/CT scanner. The regions of interests (ROIs) were drawn over the tumor and other organs and calculated as %ID/g. The mean uptake and standard deviation were calculated.

The pIC50 is the IC50 on a negative log10 scale, so that one unit is a factor of ten. Higher therefore signals a low IC50. In turn, `C[C@H](Nc1ncc2c(C3CCN(C)CC3)cn([C@H]3CC[C@H](O)CC3)c2n1)c1ccccc1` [MerTK-2] had a pIC50 on Tyro3 of 6.74.

Regarding `C[C@H](Nc1ncc2c(C3CCN(C(=S)Nc4ccc(CC5CN(CC(=O)O)CCN(CC(=O)O)CCN5CC(=O)O)cc4)CC3)cn([C@H]3CC[C@H](O)CC3)c2n1)c1ccccc1` (stereo partly drawn) [MerTK-4], the negative-log IC50 (pIC50) against Tyro3 is 6.74. Moreover, the tumor uptakes in series [1] is listed as below 1 %ID/g.

Turning to `CCC[C@H](C)Nc1ncc2c(C3CCN(CCF)CC3)cn([C@H]3CC[C@H](O)CC3)c2n1` [MerTK-5], the pIC50 against Tyro3 was 6.72.

`C[C@H](Nc1ncc2c(C3CCN(CCF)CC3)cn([C@H]3CC[C@H](O)CC3)c2n1)c1ccccc1` [MerTK-6] had a pIC50 against Tyro3 of 6.92. Moreover, the “tumor uptake and contrast compared with MerTK-5” value in series [2] was “more prominent tumor uptake and contrast”.
